Test results reported in publication PMC8348901, “Novel N-Substituted 3-Aryl-4-(diethoxyphosphoryl)azetidin-2-ones as Antibiotic Enhancers and Antiviral Agents in Search for a Successful Treatment of Complex Infections” (International Journal of Molecular Sciences, 2021).
Where two headings read alike, the source gives them in different places.

Key:
[1] = system: Hap1 (chronic myeloid leukemia); assay: Cytostatic activity (cell proliferation); assay type: cell-based
Experimental: (§1) The 50% cytostatic inhibitory concentration (IC50) causing a 50% decrease in cell proliferation was determined for all obtained compounds toward 9 cancerous cell lines, i.e.,: Capan-1 (pancreatic adenocarcinoma), Hap1 (chronic myeloid leukemia), HCT-116 (colorectal carcinoma), NCI-H460 (lung carcinoma), DND-41 (acute lymphoblastic leukemia), HL-60 (acute myeloid leukemia), K-562 (chronic myeloid leukemia), MM.1S (multiple myeloma), Z-138 non-Hodgkin lymphoma), as well as normal retina (non-cancerous) cells (hTERT RPE-1). Docetaxel, etoposide and stauroporine were used as the reference compounds.
(§2) All assays were performed in 96-well microtiter plates. To each well was added (5–7.5) × 10^4 tumor cells and a given amount of the tested compound. The cells were allowed to proliferate at 37 °C in a humidified, CO2-controlled atmosphere. At the end of the incubation period, the cells were counted in a Coulter counter. The IC50 (50% inhibitory concentration) was defined as the concentration of the compound that inhibited cell proliferation by 50%.

[2] = system: hTERT RPE-1 normal retina (non-cancerous) cells; assay: Cytostatic activity (cell proliferation); assay type: cell-based
Experimental: as §1, §2

[3] = system: HCT-116 (colorectal carcinoma); assay: Cytostatic activity (cell proliferation); assay type: cell-based
Experimental: as §1, §2

[4] = system: DND-41 (acute lymphoblastic leukemia); assay: Cytostatic activity (cell proliferation); assay type: cell-based
Experimental: as §1, §2

[5] = system: NCI-H460 (lung carcinoma); assay: Cytostatic activity (cell proliferation); assay type: cell-based
Experimental: as §1, §2

[6] = system: Capan-1 (pancreatic adenocarcinoma); assay: Cytostatic activity (cell proliferation); assay type: cell-based
Experimental: as §1, with “RPE-1).” for “RPE-1). Docetaxel, etoposide and stauroporine were used as the reference compounds.”
as §2, with “counter.” for “counter. The IC50 (50% inhibitory concentration) was defined as the concentration of the compound that inhibited cell proliferation by 50%.”

S. aureus ATCC 25923 = assay: Oxacillin MIC reduction (adjuvant) microdilution assay; assay type: cell-based, Staphylococcus aureus; conditions: for Activity Gain [A]: MIC(OXA)/MIC(OXA+Cpd), compound 0.5 mM, adjuvant activity if A ≥ 4; for OXA+ Cpd MIC: oxacillin MIC in presence of 0.5 mM compound
Experimental: (§3) Since the lack of direct antibacterial activity of the obtained azetidinones was observed, all isomers trans and cis were investigated on their “adjuvant” properties, i.e., an ability to enhance the effectiveness of antibiotics against S. aureus strains. Thus, the compounds were tested in combination with the known β-lactam antibiotic, oxacillin, in the microdilution assays. The ability of the tested azetidinones to reduce minimum inhibitory concentration (MIC) of oxacillin against both, the referenced and the resistant S. aureus strains, was assessed.
(§4) The in-vitro antibacterial property and the capacity of tested compounds to increase the efficacy of antibiotics were evaluated in two Staphylococcus aureus strains, i.e., the reference clonal complex 5 (CC5) methicillin-susceptible (MSSA) strain ATCC 25923, and the methicillin-resistant (MRSA) extensively drug-resistant (XDR) clinical isolate HEMSA-5 [46].
(§5) In order to assess the increase of antibiotic efficacy, the assays were conducted by determining if/to what extent the investigated compounds reduce MICs of oxacillin by means of a serial dilution broth microplate method, in accordance with the CLSI requirements. The concentrations of compounds used in the MICs reduction assay were no greater than 1/4 of their respective MICs to ensure that cell viability was not affected by the intrinsic antibacterial activity of the molecules. Serial two-fold dilutions of oxacillin (Sigma-Aldrich; St. Louis, MI, USA, cat. no. 28221), were prepared in […] of the Mueller–Hinton broth (Merck; Darmstadt, Germany, cat. no. 1102930500). Suitable concentrations of the compounds (total volume […]) were then added. Bacterial suspensions were diluted to OD ¼ 0.5. The resulting suspensions were then diluted 1:100 and added in the volume of […] into the oxacillin serial dilutions with the compounds. The results were read after 20-h incubation at 37 °C.
(§6) The ability of compounds to improve antibiotic efficacy was expressed as the activity gain [A] parameter calculated according to the formula given in Figure 10.
(§7) Figure 10 Activity gain. MICAnt corresponds to the MIC of oxacillin in the absence of a compound tested and MICAnt + Comp refers to the MIC of oxacillin paired with a compound tested.

MRSA HEMSA 5 = assay: as above; assay type: cell-based, Staphylococcus aureus; conditions: for Activity Gain [A]: MIC(OXA)/MIC(OXA+Cpd), compound 0.5 mM, adjuvant activity if A ≥ 4; for OXA+ Cpd MIC: oxacillin MIC in presence of 0.5 mM compound
Experimental: as §3, §4, §5, §6, §7

[7] = system: cytomegalovirus AD-169 strain; assay: Antiviral CPE reduction assay, cytomegalovirus AD-169 strain in HEL cells; assay type: cell-based, human cytomegalovirus (HCMV); conditions: Human betaherpesvirus 5, AD169

| EC50 [7] [nM] | SMILES | IC50 ([1]; Homo sapiens, HAP1) [µM] | IC50 ([2]; hTERT-RPE1) [µM] | IC50 ([3]; Homo sapiens, HCT-116) [µM] | IC50 ([4]; DND41) [µM] | IC50 ([5]; Homo sapiens, NCI-H460) [µM] | IC50 ([6]; Homo sapiens, CAPAN-1) [µM] | Activity Gain [A] (S. aureus ATCC 25923) | Activity Gain [A] (MRSA HEMSA 5) | IC50 [1] [µM] | IC50 [2] [µM] | IC50 [3] [µM] | IC50 [4] [µM] | IC50 [5] [µM] | IC50 [6] [µM] | OXA+ Cpd MIC (S. aureus ATCC 25923) [µg/mL] | OXA+ Cpd MIC (MRSA HEMSA 5) [µg/mL] |
| --- | --- | --- | --- | --- | --- | --- | --- | --- | --- | --- | --- | --- | --- | --- | --- | --- | --- |
| – | CCOP(=O)(OCC)[C@@H]1[C@H](c2ccc(F)cc2F)C(=O)N1Cc1ccccc1 (relative stereo) [cis-11e, cis-N-benzyl-3-(2,4-difluorophenyl)-4-(diethoxyphosphoryl)azetidin-2-one] | > 100 | > 100 | > 100 | > 100 | 43 | 48.9 | 0.5 | 1 | – | – | – | – | – | – | – | – |
| – | CCOP(=O)(OCC)[C@H]1[C@H](c2ccccc2)C(=O)N1C (relative stereo) [trans-10a, trans-N-methyl-3-phenyl-4-(diethoxyphosphoryl)azetidin-2-one] | – | – | – | – | – | – | 1 | 1 | > 100 | > 100 | > 100 | > 100 | 54.6 | 46.2 | 0.5 | 512 |
| – | CCOP(=O)(OCC)[C@H]1[C@H](c2ccc(F)cc2F)C(=O)N1C (relative stereo) [trans-10e, trans-N-methyl-3-(2,4-difluorophenyl)-4-(diethoxyphosphoryl)azetidin-2-one] | 51.7 | > 100 | > 100 | > 100 | 67.6 | 51.7 | <0.5 | 1 | – | – | – | – | – | – | – | – |
| – | CCOP(=O)(OCC)[C@H]1[C@H](c2cccc(F)c2)C(=O)N1Cc1ccccc1 (relative stereo) [trans-11c, trans-N-benzyl-3-(3-fluorophenyl)-4-(diethoxyphosphoryl)azetidin-2-one] | 56.1 | 45.9 | 45.5 | > 100 | 44.3 | 40.1 | <0.5 | 1 | – | – | – | – | – | – | – | – |
| – | CCOP(=O)(OCC)[C@@H]1[C@H](c2ccc(F)cc2)C(=O)N1C (relative stereo) [cis-10d, cis-N-methyl-3-(4-fluorophenyl)-4-(diethoxyphosphoryl)azetidin-2-one] | 70.3 | > 100 | 86.5 | > 100 | 71 | > 100 | 0.5 | 1 | – | – | – | – | – | – | – | – |
| – | CCOP(=O)(OCC)[C@@H]1[C@H](c2ccccc2)C(=O)N1C (relative stereo) [cis-10a, cis-N-methyl-3-phenyl-4-(diethoxyphosphoryl)azetidin-2-one] | – | – | – | – | – | – | 0.5 | 1–2 | 46.3 | > 100 | > 100 | > 100 | > 100 | 37.8 | 1 | 256 to 512 |
| 670 | Nc1ccn(C[C@@H](CO)OCP(=O)(O)O)c(=O)n1 [cidofovir] | – | – | – | – | – | – | – | – | – | – | – | – | – | – | – | – |
| – | CCOP(=O)(OCC)[C@H]1[C@H](c2ccc(F)cc2)C(=O)N1Cc1ccccc1 (relative stereo) [trans-11d, trans-N-benzyl-3-(4-fluorophenyl)-4-(diethoxyphosphoryl)azetidin-2-one] | 48.3 | 73 | 44.3 | > 100 | 28.4 | 35.8 | 0.5 | 2 | – | – | – | – | – | – | – | – |
| – | CCOP(=O)(OCC)[C@@H]1[C@H](c2ccccc2F)C(=O)N1Cc1ccccc1 (relative stereo) [cis-11b, cis-N-benzyl-3-(2-fluorophenyl)-4-(diethoxyphosphoryl)azetidin-2-one] | > 100 | > 100 | 74.1 | > 100 | 72.8 | 53 | 1 | 1 | – | – | – | – | – | – | – | – |
| – | CCOP(=O)(OCC)[C@@H]1[C@H](c2ccccc2F)C(=O)N1C (relative stereo) [cis-10b, cis-N-methyl-3-(2-fluorophenyl)-4-(diethoxyphosphoryl)azetidin-2-one] | 14.5 | > 100 | > 100 | > 100 | 45.2 | 31.9 | 0.5 | 1 | – | – | – | – | – | – | – | – |
| 3150 | Nc1nc(O)c2ncn(COC(CO)CO)c2n1 [ganciclovir] | – | – | – | – | – | – | – | – | – | – | – | – | – | – | – | – |
| – | CCOP(=O)(OCC)[C@H]1[C@H](c2ccc(F)cc2F)C(=O)N1Cc1ccccc1 (relative stereo) [trans-11e, trans-N-benzyl-3-(2,4-difluorophenyl)-4-(diethoxyphosphoryl)azetidin-2-one] | 42.9 | 25.6 | 36.6 | > 100 | 24.4 | 36.5 | 0.5 | 1 | – | – | – | – | – | – | – | – |
| – | CCOP(=O)(OCC)[C@H]1[C@H](c2ccccc2)C(=O)N1Cc1ccccc1 (relative stereo) [trans-11a, trans-N-benzyl-3-phenyl-4-(diethoxyphosphoryl)azetidin-2-one] | 63.6 | > 100 | > 100 | > 100 | 50.9 | 61 | <0.5 | 1–2 | – | – | – | – | – | – | – | – |
| – | CCOP(=O)(OCC)[C@@H]1[C@H](c2ccc(F)c(C)c2)C(=O)N1C (relative stereo) [cis-10f, cis-N-methyl-3-(4-fluoro-3-methylphenyl)-4-(diethoxyphosphoryl)azetidin-2-one] | 97.9 | > 100 | > 100 | > 100 | 87 | 61.4 | 0.5 | 1–2 | – | – | – | – | – | – | – | – |
| – | CCOP(=O)(OCC)[C@H]1[C@H](c2ccccc2F)C(=O)N1Cc1ccccc1 (relative stereo) [trans-11b, trans-N-benzyl-3-(2-fluorophenyl)-4-(diethoxyphosphoryl)azetidin-2-one] | > 100 | > 100 | > 100 | > 100 | 56.7 | 51.9 | <0.5 | 1–2 | – | – | – | – | – | – | – | – |
| – | CCOP(=O)(OCC)[C@H]1[C@H](c2ccc(F)c(C)c2)C(=O)N1C (relative stereo) [trans-10f, trans-N-methyl-3-(4-fluoro-3-methylphenyl)-4-(diethoxyphosphoryl)azetidin-2-one] | 41.8 | 90.2 | > 100 | > 100 | 59.7 | 47.7 | 0.5 | 1 | – | – | – | – | – | – | – | – |
